{"source": "BigSolDB 2.1"}
{"compound": "CO/N=C(\\C(=O)Sc1nc2ccccc2s1)c1csc(N)n1", "values": [{"measurement": "solubility (mole fraction)", "setting": "in ethanol, 277.67 K", "result": 0.000203}, {"measurement": "solubility (mole fraction)", "setting": "in ethanol, 283.11 K", "result": 0.000248}, {"measurement": "solubility (mole fraction)", "setting": "in ethanol, 288.17 K", "result": 0.000325}, {"measurement": "solubility (mole fraction)", "setting": "in ethanol, 293.09 K", "result": 0.000399}, {"measurement": "solubility (mole fraction)", "setting": "in ethanol, 298.17 K", "result": 0.000517}, {"measurement": "solubility (mole fraction)", "setting": "in ethanol, 303.09 K", "result": 0.000688}, {"measurement": "solubility (mole fraction)", "setting": "in isobutanol, 277.67 K", "result": 0.000148}, {"measurement": "solubility (mole fraction)", "setting": "in isobutanol, 283.07 K", "result": 0.000171}, {"measurement": "solubility (mole fraction)", "setting": "in isobutanol, 287.99 K", "result": 0.000206}, {"measurement": "solubility (mole fraction)", "setting": "in isobutanol, 292.79 K", "result": 0.000268}, {"measurement": "solubility (mole fraction)", "setting": "in isobutanol, 297.77 K", "result": 0.000345}, {"measurement": "solubility (mole fraction)", "setting": "in isobutanol, 304.27 K", "result": 0.000531}, {"measurement": "solubility (mole fraction)", "setting": "in isopentanol, 277.65 K", "result": 0.000183}, {"measurement": "solubility (mole fraction)", "setting": "in isopentanol, 283.07 K", "result": 0.000215}, {"measurement": "solubility (mole fraction)", "setting": "in isopentanol, 288.37 K", "result": 0.000286}, {"measurement": "solubility (mole fraction)", "setting": "in isopentanol, 293.03 K", "result": 0.000371}, {"measurement": "solubility (mole fraction)", "setting": "in isopentanol, 298.17 K", "result": 0.000472}, {"measurement": "solubility (mole fraction)", "setting": "in isopentanol, 302.63 K", "result": 0.000622}, {"measurement": "solubility (mole fraction)", "setting": "in isopropanol, 277.91 K", "result": 0.000116}, {"measurement": "solubility (mole fraction)", "setting": "in isopropanol, 283.21 K", "result": 0.000142}, {"measurement": "solubility (mole fraction)", "setting": "in isopropanol, 288.05 K", "result": 0.000168}, {"measurement": "solubility (mole fraction)", "setting": "in isopropanol, 293.19 K", "result": 0.000211}, {"measurement": "solubility (mole fraction)", "setting": "in isopropanol, 298.13 K", "result": 0.000283}, {"measurement": "solubility (mole fraction)", "setting": "in isopropanol, 303.13 K", "result": 0.000365}, {"measurement": "solubility (mole fraction)", "setting": "in n-butanol, 278.11 K", "result": 0.000262}, {"measurement": "solubility (mole fraction)", "setting": "in n-butanol, 283.53 K", "result": 0.00032}, {"measurement": "solubility (mole fraction)", "setting": "in n-butanol, 288.37 K", "result": 0.000424}, {"measurement": "solubility (mole fraction)", "setting": "in n-butanol, 293.03 K", "result": 0.000525}, {"measurement": "solubility (mole fraction)", "setting": "in n-butanol, 297.73 K", "result": 0.000662}, {"measurement": "solubility (mole fraction)", "setting": "in n-butanol, 303.71 K", "result": 0.000962}, {"measurement": "solubility (mole fraction)", "setting": "in n-pentanol, 278.27 K", "result": 0.000283}, {"measurement": "solubility (mole fraction)", "setting": "in n-pentanol, 283.33 K", "result": 0.00034}, {"measurement": "solubility (mole fraction)", "setting": "in n-pentanol, 288.15 K", "result": 0.000433}, {"measurement": "solubility (mole fraction)", "setting": "in n-pentanol, 293.23 K", "result": 0.000564}, {"measurement": "solubility (mole fraction)", "setting": "in n-pentanol, 298.17 K", "result": 0.000744}, {"measurement": "solubility (mole fraction)", "setting": "in n-pentanol, 303.15 K", "result": 0.000992}, {"measurement": "solubility (mole fraction)", "setting": "in n-propanol, 277.85 K", "result": 0.000226}, {"measurement": "solubility (mole fraction)", "setting": "in n-propanol, 283.17 K", "result": 0.000256}, {"measurement": "solubility (mole fraction)", "setting": "in n-propanol, 288.13 K", "result": 0.000332}, {"measurement": "solubility (mole fraction)", "setting": "in n-propanol, 293.17 K", "result": 0.000414}, {"measurement": "solubility (mole fraction)", "setting": "in n-propanol, 297.97 K", "result": 0.000544}, {"measurement": "solubility (mole fraction)", "setting": "in n-propanol, 302.81 K", "result": 0.00079}]}
